Test results from PMC8991007, “Benzylic Dehydroxylation of Echinocandin Antifungal Drugs Restores Efficacy against Resistance Conferred by Mutated Glucan Synthase” (Journal of the American Chemical Society, 2022).
Values after ≈ are worked out from the molar mass of the structure shown. *1 amine or outer side, *2 acyl side, *3 side chain or, on linkers, in order; H or OH if unused. Where a SMILES comes first, the peptide text is derived from it. Bridges are numbered along the chain shown (N, C = ends). [ ]: non-standard residue; d: D form. The star is where a group is joined. pTerphenylCO(4''-OnC5H11) = CCCCCOc1ccc(-c2ccc(-c3ccc(C(=O)*)cc3)cc2)cc1; Orn(4R-OH,5R-OH) = O=C([C@H](C[C@@H](O)[C@@H](O)N[*:3])N[*:1])[*:2]; hTyr(3S-OH,4S-OH) = N[C@H](C(=O)O)[C@H](O)[C@@H](O)c1ccc(O)cc1; Pro(3S-OH,4S-Me) = C[C@H]1CN[C@H](C(=O)O)[C@H]1O; hTyr(3R-OH) = N[C@H](C(=O)O)[C@H](O)Cc1ccc(O)cc1; Hyp = O=C(O)[C@@H]1C[C@@H](O)CN1

Columns and labels:
[1] = system: C. glabrata; test: Minimum inhibitory concentration broth double-dilution assay; type: cell-based, Candida glabrata; conditions: for MIC: 24 h, 30 °C
Method: The antifungal activities of compounds 1 and 2 were evaluated against a panel of 50 strains of C. albicans and C. glabrata (Table S4), including echinocandin-resistant strains that were constructed by introducing mutations within and near the defined hotspots in the FKS1 and/or FKS2 genes.[27] To evaluate antifungal activity, we determined MIC values. The MIC was defined as the lowest drug concentration that led to turbidity (measured at 600 nm) of less than or equal to 35% of that of the untreated culture. As controls, we tested CSF, MCF, ANF, and RZF.
All of the tested compounds were dissolved in anhydrous DMSO to a concentration of 5 mg/mL. Candida strains were streaked from a glycerol stock onto YPAD agar plates and grown for 24 h at 30 °C. Colonies were suspended in 1 mL of PBS and diluted to an O.D. of 0.01 at 600 nm with YPAD broth and added into flat-bottom 96-well microplates (Corning) containing a gradient of twofold dilutions per tested compound with concentrations ranging from 64 to 0.0009 μg/mL. Control wells with no drug and blank wells without yeast cells containing YPAD only were also prepared. […] Each concentration was tested in triplicate, and results were confirmed by at least two independent sets of experiments.

[2] = set-up: method as in PMID 23335738; conditions: patients with candidemia or invasive candidiasis, 200 mg loading dose day 1 then daily 100 mg; cited from earlier work

SMILES | MIC ([1]; #9 C. glabrata EF1620) [µg/mL] | MIC ([1]; #10 C. glabrata TGL00277) [µg/mL] | MIC ([1]; #11 C. glabrata TGL00275) [µg/mL] | MIC ([1]; #12 C. glabrata CST78) [µg/mL] | MIC ([1]; #13 C. glabrata TGL00265) [µg/mL] | MIC ([1]; #14 C. glabrata TGL00264) [µg/mL] | MIC ([1]; #15 C. glabrata TGL00263) [µg/mL] | MIC ([1]; #16 C. glabrata TGL00065) [µg/mL] | MIC ([1]; #17 C. glabrata CST34) [µg/mL] | MIC ([1]; #18 C. glabrata TGL00258) [µg/mL] | MIC ([1]; #19 C. glabrata TGL00256) [µg/mL] | MIC ([1]; #20 C. glabrata TGL00107) [µg/mL] | MIC ([1]; #21 C. glabrata TGL00056) [µg/mL] | MIC ([1]; #22 C. glabrata M12) [µg/mL] | MIC ([1]; #23 C. glabrata TGL00270) [µg/mL] | MIC ([1]; #24 C. glabrata TGL00269) [µg/mL] | MIC ([1]; #25 C. glabrata TGL00268) [µg/mL] | MIC ([1]; #26 C. glabrata TGL00268) [µg/mL] | MIC ([1]; #27 C. glabrata EB0911) [µg/mL] | MIC ([1]; #28 C. glabrata TGL00261) [µg/mL] | other results
CCCCCOc1ccc(-c2ccc(-c3ccc(C(=O)N[C@H]4C[C@@H](O)[C@@H](O)NC(=O)[C@@H]5[C@@H](O)[C@@H](C)CN5C(=O)[C@H]([C@@H](C)O)NC(=O)[C@H]([C@H](O)[C@@H](O)c5ccc(O)cc5)NC(=O)[C@@H]5C[C@@H](O)CN5C(=O)[C@H]([C@@H](C)O)NC4=O)cc3)cc2)cc1 [ANF, anidulafungin] ({pTerphenylCO(4''-OnC5H11)}-[Orn(4R-OH,5R-OH)]T[Hyp][hTyr(3S-OH,4S-OH)]T[Pro(3S-OH,4S-Me)]; lactam 1-C) | 0.008 (≈ 0.00702 µM) | > 64 | 4 (≈ 3.51 µM) | 0.004 (≈ 0.00351 µM) | 4 (≈ 3.51 µM) | 32 (≈ 28.1 µM) | 2 (≈ 1.75 µM) | 8 (≈ 7.02 µM) | 0.008 (≈ 0.00702 µM) | > 64 | 2 (≈ 1.75 µM) | > 64 | > 64 | 0.002 (≈ 0.00175 µM) | 4 (≈ 3.51 µM) | 0.25 (≈ 0.219 µM) | > 64 | > 64 | 0.004 (≈ 0.00351 µM) | 2 (≈ 1.75 µM) | MIC ([1]; #29 C. glabrata TGL00109): > 64 µg/mL; MIC ([1]; #30 C. glabrata TGL00259): 16 µg/mL (≈ 14 µM); Cmax [2]: ~7 µM
CCCCCOc1ccc(-c2ccc(-c3ccc(C(=O)N[C@H]4C[C@@H](O)[C@@H](O)NC(=O)[C@@H]5[C@@H](O)[C@@H](C)CN5C(=O)[C@H]([C@@H](C)O)NC(=O)[C@H]([C@H](O)Cc5ccc(O)cc5)NC(=O)[C@@H]5C[C@@H](O)CN5C(=O)[C@H]([C@@H](C)O)NC4=O)cc3)cc2)cc1 [Compound 1, dehydroxy-ANF] ({pTerphenylCO(4''-OnC5H11)}-[Orn(4R-OH,5R-OH)]T[Hyp][hTyr(3R-OH)]T[Pro(3S-OH,4S-Me)]; lactam 1-C) | 0.004 (≈ 0.00356 µM) | 8 (≈ 7.12 µM) | 8 (≈ 7.12 µM) | 0.002 (≈ 0.00178 µM) | 1 (≈ 0.889 µM) | > 64 | 1 (≈ 0.889 µM) | 16 (≈ 14.2 µM) | 0.002 (≈ 0.00178 µM) | 32 (≈ 28.5 µM) | 0.25 (≈ 0.222 µM) | > 64 | > 64 | 0.002 (≈ 0.00178 µM) | 1 (≈ 0.889 µM) | 0.063 (≈ 0.056 µM) | > 64 | > 64 | 0.002 (≈ 0.00178 µM) | 0.25 (≈ 0.222 µM) | MIC ([1]; #29 C. glabrata TGL00109): 64 µg/mL (≈ 56.9 µM); MIC ([1]; #30 C. glabrata TGL00259): 4 µg/mL (≈ 3.56 µM); MIC ([1]; #31 C. glabrata EF1237): 0.001 µg/mL (≈ 0.000889 µM); MIC ([1]; #36 C. glabrata F15): 0.002 µg/mL (≈ 0.00178 µM); MIC ([1]; #38 C. glabrata CBS138 (ATCC 2001)): 0.004 µg/mL (≈ 0.00356 µM); MIC ([1]; #41 C. glabrata P35_2): 0.002 µg/mL (≈ 0.00178 µM); MIC ([1]; #43 C. glabrata SLL2glab): 0.002 µg/mL (≈ 0.00178 µM); MIC ([1]; #46 C. glabrata BG2): 0.001 µg/mL (≈ 0.000889 µM); increase in potency on dehydroxylation of ANF (ratio MIC (ANF)/MIC (1)) ([1]; C. glabrata strain 28, Fks2 phenylalanine 659 deleted): 8 fold
